Measurements reported in article PMC6100724, “Proteome‐wide analysis of phospho‐regulated PDZ domain interactions” (Molecular Systems Biology, 2018).
Blank lines part the entries; values can stand above or below the sequence they belong to.

Columns and labels:
Assay in all cases: Phosphomimetic ProP-PD selection with NGS
Scribble PDZ1 = molecular target: T1, Scribble PDZ1 (Homo sapiens, UniProt Q14160); type: binding; details: bait Scribble PDZ1; mean of selections 1-3
T1 construct: human Scribble PDZ1 aa 719–829 in; made in house; host or cells: E. coli BL21 Gold (DE3)
T1 sequence (Q14160 719-829): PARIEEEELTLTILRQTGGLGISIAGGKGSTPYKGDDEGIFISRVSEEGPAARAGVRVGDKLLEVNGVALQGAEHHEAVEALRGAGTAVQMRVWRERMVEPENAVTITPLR
Method: (§1) Phage selections were carried out for four rounds following a protocol by Huang and Sidhu (Huang & Sidhu, 2011) with minor modifications. Non‐specific binding phage was removed by pre‐selections against immobilized GST throughout the selection. The selections against the (pre‐)phosphorylated wild‐type library were performed in 50 mM HEPES (pH 7.4) and 150 mM NaCl (HBS) following the same procedure after pre‐phosphorylation of the library.
(§2) • Immobilize proteins (15 μg in 100 μl PBS) in a 96‐well MaxiSorp microtiter plate (NUNC) overnight at 4°C. • Start a 2YT culture of E. coli Omnimax supplemented with 100 μg/ml tetracycline to retain the F pilus epitope. • Block the wells with 200 μl 0.5% BSA in PBS for 2 h at 4°C. • Precipitate naïve phage library (10^11 cfu per selection) or amplified phage pool from the previous round of selection by adding one‐fifth the volume of PEG/NaCl. • Incubate on ice for 10 min, and pellet precipitated phage by centrifugation at 5,300 g for 15 min. Resuspend the phage pellet in 100 μl PBS per selection. • Add 100 μl of phage solution to the GST‐coated pre‐selection wells and incubate for 1 h. • Transfer the phage solution to the immobilized target proteins and allow it to bind for 2 h at 8°C. • Wash the plate four times with 200 μl cold wash buffer (PBS, 0.05% Tween‐20). • Elute bound phage by incubation with 100 μl log phase (0.6–0.8 OD600) E. coli Omnimax for 30 min at 37°C with shaking (200 RPM). • Add 10^12 cfu/ml M13K07 helper phage for hyperinfection of the bacteria and incubate as above for 45 min. • Transfer the bacterial culture to 10 ml 2YT supplemented with 50 μg/ml carbenicillin, 25 μg/ml kanamycin, and 300 μM IPTG and incubate overnight at 37°C while shaking. • Perform phage pool ELISA to monitor the progress of the selection as described previously (Huang & Sidhu, 2011).
(§3) The naïve library and the enriched phage pools of the third day of selection were amplified and barcoded by PCR and analyzed by NGS as described elsewhere (McLaughlin & Sidhu, 2013; Ivarsson et al, 2014). The reads were demultiplexed using the barcode sequences and filtered by discarding sequences with a Phred quality score under 30. Sequences were mapped to the original library using Bowtie (Langmead et al, 2009) with two mismatches between reads and library sequence. Nucleotide mutations leading to amino acid substitutions were subsequently removed. Cutoff values of NGS counts were assigned for each pool. PWMs were generated based on the remaining peptides (aligned on the C‐termini) using WebLogo (Crooks et al, 2004).
(§4) However, there was no significant correlation of the actual read counts (selection “strength”) and the initial representation in the library, reflecting the strong selection during phage display (wt+mimetic: P‐value: 0.49, ρ = −0.08, mimetic only: P‐value: 0.069, ρ = −0.2, wt only: P‐value: 0.12, ρ = 0.17). Consequently, the amount of reads for each binder after phage display is not a function of the amount of input reads in the naïve library and no modeling based on the input library frequencies to score the interactions is necessary. To allow for comparison between replicate selections, we used the fraction of NGS reads within a certain set, instead of the absolute number of NGS reads, as the absolute numbers differ between different NGS batches.

DLG1 PDZ1 = type: binding, human; details: mean of selections 1-3, bait DLG1 PDZ1; for Mean fraction #NGS counts mimetic peptide / total count selection: phosphomimetic peptide; for Mean fraction #NGS counts wt peptide / total counts selection: wild type peptide
Method: as §1, §2, §3, §4

DLG1 PDZ2 = molecular target: T2, DLG1 PDZ2 (Homo sapiens, UniProt Q12959); type: binding; details: mean of selections 1-3, bait DLG1 PDZ2
T2 construct: human DLG1 PDZ2 aa 311–407 in a modified pRSET vector 40; made in house; host or cells: E. coli BL21 Gold (DE3)
T2 sequence (Q12959 311-407): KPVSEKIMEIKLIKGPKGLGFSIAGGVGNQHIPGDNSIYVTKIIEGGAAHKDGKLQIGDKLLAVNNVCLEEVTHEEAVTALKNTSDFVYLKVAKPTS
Method: as §1, §2, §3, §4

Scribble PDZ2 = type: binding, human; details: bait Scribble PDZ2
Method: as §1, §2, §3, §4

Scribble PDZ3 = type: binding, human; details: bait Scribble PDZ3
Method: as §1, §2, §3, §4

[1] = mean of selections 1 and 2 (selection 3 empty)

Mean fraction #NGS counts mimetic peptide / total count selection (Scribble PDZ1): 0.0001134
Sequence: GELALLTKL
Mean fraction #NGS counts mimetic peptide / total count selection (DLG1 PDZ1): 1.514e-5

Mean fraction #NGS counts mimetic peptide / total count selection (DLG1 PDZ2): 0
Sequence: YPAEPDSWV
Mean fraction #NGS counts mimetic peptide / total count selection (Scribble PDZ2; [1]): 0

Sequence: QEELKLSNL
Mean fraction #NGS counts mimetic peptide / total count selection (Scribble PDZ2; [1]): 0.0005697

Sequence: RGLESATEL
Mean fraction #NGS counts mimetic peptide / total count selection (Scribble PDZ2; mean over selections): 0.001519

Mean fraction #NGS counts mimetic peptide / total count selection (Scribble PDZ1): 0.0002246
Sequence: EARLWETSI
Mean fraction #NGS counts mimetic peptide / total count selection (DLG1 PDZ1): 3.0718e-6
Mean fraction #NGS counts mimetic peptide / total count selection (Scribble PDZ3; mean over selections 1-3): 0.01196

Mean fraction #NGS counts mimetic peptide / total count selection (DLG1 PDZ2): 0.0002982
Sequence: MRLQSETEV
Mean fraction #NGS counts mimetic peptide / total count selection (DLG1 PDZ1): 3.405e-5

Mean fraction #NGS counts mimetic peptide / total count selection (DLG1 PDZ2): 1.723e-5
Sequence: RREEYSTTV
Mean fraction #NGS counts mimetic peptide / total count selection (DLG1 PDZ1): 1.94e-5

Mean fraction #NGS counts wt peptide / total counts selection (DLG1 PDZ2): 0.0001112
Sequence: YPASPDSWV
Mean fraction #NGS counts wt peptide / total counts selection (Scribble PDZ2; [1]): 0.02304

Mean fraction #NGS counts mimetic peptide / total count selection (DLG1 PDZ2): 6.6203e-5
Sequence: TRLEQHTDV
Mean fraction #NGS counts mimetic peptide / total count selection (DLG1 PDZ1): 8.513e-6

Mean fraction #NGS counts wt peptide / total counts selection (DLG1 PDZ2; wild type peptide): 2.5129e-5
Sequence: KPSRISTVV
Mean fraction #NGS counts wt peptide / total counts selection (DLG1 PDZ1): 0

Sequence: RGLESATSL
Mean fraction #NGS counts wt peptide / total counts selection (Scribble PDZ2; mean over selections): 0

Mean fraction #NGS counts wt peptide / total counts selection (DLG1 PDZ2): 0.0001258
Mean fraction #NGS counts wt peptide / total counts selection (DLG1 PDZ2; wild type peptide): 0.0001258
Mean fraction #NGS counts wt peptide / total counts selection (Scribble PDZ1): 4.38e-5
Sequence: SGSYLVTSV
Mean fraction #NGS counts wt peptide / total counts selection (Scribble PDZ2; [1]): 0.0003798
Mean fraction #NGS counts wt peptide / total counts selection (Scribble PDZ2; mean over selections): 0.0003798

Mean fraction #NGS counts wt peptide / total counts selection (Scribble PDZ1): 0.005032
Sequence: SARLWETSI
Mean fraction #NGS counts wt peptide / total counts selection (DLG1 PDZ1): 5.924e-6
Mean fraction #NGS counts wt peptide / total counts selection (Scribble PDZ3; mean over selections 1-3): 0.08665

Mean fraction #NGS counts wt peptide / total counts selection (Scribble PDZ1): 2.8202e-5
Sequence: ESREVTTYL
Mean fraction #NGS counts wt peptide / total counts selection (DLG1 PDZ1): 0
Mean fraction #NGS counts wt peptide / total counts selection (Scribble PDZ3; mean over selections 1-3): 5.004e-5

Sequence: KLESIESDV
Mean fraction #NGS counts mimetic peptide / total count selection (DLG1 PDZ1): 0

Sequence: SGEYLVTEV
Mean fraction #NGS counts mimetic peptide / total count selection (Scribble PDZ2; mean over selections): 0.001329

Mean fraction #NGS counts wt peptide / total counts selection (DLG1 PDZ2): 0.002959
Mean fraction #NGS counts wt peptide / total counts selection (Scribble PDZ1): 0.07558
Sequence: ARVSKETPL
Mean fraction #NGS counts wt peptide / total counts selection (Scribble PDZ3; mean over selections 1-3): 0.1287

Sequence: WVDSYYTSL
Mean fraction #NGS counts wt peptide / total counts selection (Scribble PDZ2; mean over selections): 0
Mean fraction #NGS counts wt peptide / total counts selection (Scribble PDZ3; mean of selections 1-3, wild type peptide): 0.0003456

Mean fraction #NGS counts wt peptide / total counts selection (DLG1 PDZ2): 0.0007437
Sequence: TRLSQHTDV
Mean fraction #NGS counts wt peptide / total counts selection (DLG1 PDZ1): 0.0004744

Mean fraction #NGS counts mimetic peptide / total count selection (Scribble PDZ1): 4.939e-5
Sequence: VVHEPETEV
Mean fraction #NGS counts mimetic peptide / total count selection (DLG1 PDZ1): 1.207e-5

Sequence: QSELKLSNL
Mean fraction #NGS counts wt peptide / total counts selection (Scribble PDZ2; [1]): 0.0009495

Sequence: ESGSQHTNV
Mean fraction #NGS counts mimetic peptide / total count selection (DLG1 PDZ1): 0

Mean fraction #NGS counts wt peptide / total counts selection (DLG1 PDZ2): 5.408e-5
Sequence: MRLQSETSV
Mean fraction #NGS counts wt peptide / total counts selection (DLG1 PDZ1): 1.185e-6

Mean fraction #NGS counts mimetic peptide / total count selection (DLG1 PDZ2): 3.877e-6
Mean fraction #NGS counts mimetic peptide / total count selection (Scribble PDZ1): 0
Sequence: RSRSISEDV
Mean fraction #NGS counts mimetic peptide / total count selection (DLG1 PDZ1): 0
Mean fraction #NGS counts mimetic peptide / total count selection (Scribble PDZ3; mean over selections 1-3): 0

Mean fraction #NGS counts mimetic peptide / total count selection (DLG1 PDZ2): 0
Mean fraction #NGS counts mimetic peptide / total count selection (Scribble PDZ1): 1.46e-5
Sequence: ARVSKEEPL
Mean fraction #NGS counts mimetic peptide / total count selection (Scribble PDZ3; mean over selections 1-3): 0

Sequence: TELTWISTL
Mean fraction #NGS counts mimetic peptide / total count selection (Scribble PDZ2; [1]): 0.002089

Mean fraction #NGS counts mimetic peptide / total count selection (DLG1 PDZ2): 0
Sequence: SGEYLVTSV
Mean fraction #NGS counts mimetic peptide / total count selection (Scribble PDZ2; [1]): 0.001139

Mean fraction #NGS counts wt peptide / total counts selection (Scribble PDZ1): 0.0001068
Sequence: SPTVHVTEL
Mean fraction #NGS counts wt peptide / total counts selection (Scribble PDZ3; mean over selections 1-3): 5.538e-5

Sequence: ASEPGGTVV
Mean fraction #NGS counts mimetic peptide / total count selection (DLG1 PDZ1): 0
